# Experimental data from patent US8013156B2 (Exelixis, Inc., priority 2003, dated 2011).
# Biological target: Tie-2 (Homo sapiens, UniProt Q02763)
# Experiment: Tie-2 tyrosine kinase activity assay (luciferase/luciferin ATP consumption with pEY substrate, or 33P-ATP incorporation)
# Format: biochemical
# Details: human enzyme Tie-2
# How it was run: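 Values are IC50 categories (A <50 nM to D ≥10,000 nM), with Ki obtainable by fitting rates to a tight-binding model. Assay formats: 33P-ATP phosphate transfer to adsorbed generic substrate counted by scintillation, or luciferase-detected ATP depletion using pEY.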
# Sequence of Tie-2 (Q02763 23-1124): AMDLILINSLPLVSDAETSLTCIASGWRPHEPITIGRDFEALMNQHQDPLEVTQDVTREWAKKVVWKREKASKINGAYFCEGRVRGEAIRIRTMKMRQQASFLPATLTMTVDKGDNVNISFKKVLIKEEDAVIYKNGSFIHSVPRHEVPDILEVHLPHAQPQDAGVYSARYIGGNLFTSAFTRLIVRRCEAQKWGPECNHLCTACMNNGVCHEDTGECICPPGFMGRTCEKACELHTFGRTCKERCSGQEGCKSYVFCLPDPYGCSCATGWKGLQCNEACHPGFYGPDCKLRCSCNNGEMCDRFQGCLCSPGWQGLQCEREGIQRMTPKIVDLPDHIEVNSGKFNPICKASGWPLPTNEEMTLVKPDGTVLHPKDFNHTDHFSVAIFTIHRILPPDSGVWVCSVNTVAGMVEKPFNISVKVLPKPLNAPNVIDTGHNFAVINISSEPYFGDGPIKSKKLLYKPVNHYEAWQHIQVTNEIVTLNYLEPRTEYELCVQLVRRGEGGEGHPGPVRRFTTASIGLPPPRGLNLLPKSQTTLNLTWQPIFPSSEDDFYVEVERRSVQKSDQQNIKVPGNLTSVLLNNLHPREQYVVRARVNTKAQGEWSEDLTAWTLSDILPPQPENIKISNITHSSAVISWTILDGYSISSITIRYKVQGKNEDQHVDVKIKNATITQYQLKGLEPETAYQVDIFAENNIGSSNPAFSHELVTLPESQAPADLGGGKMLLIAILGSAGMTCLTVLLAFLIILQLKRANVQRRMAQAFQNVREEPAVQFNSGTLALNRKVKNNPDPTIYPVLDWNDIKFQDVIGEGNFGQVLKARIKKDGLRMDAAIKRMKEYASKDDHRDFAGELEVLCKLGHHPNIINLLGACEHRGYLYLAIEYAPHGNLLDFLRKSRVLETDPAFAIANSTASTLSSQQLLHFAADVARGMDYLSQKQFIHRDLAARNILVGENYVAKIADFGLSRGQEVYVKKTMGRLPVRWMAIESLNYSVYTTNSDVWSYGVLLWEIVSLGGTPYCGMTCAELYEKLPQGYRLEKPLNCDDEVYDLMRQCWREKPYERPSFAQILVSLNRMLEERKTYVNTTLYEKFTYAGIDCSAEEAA
row,Structure (SMILES),IC50 [nM]
1,"CCc1ccc(F)c(NC(=O)N2CCN(c3ccccc3OCc3ccnc(N)n3)CC2)c1 [Example 278, 4-(2-{[(2-aminopyrimidin-4-yl)methyl]oxy}phenyl)-N-(5-ethyl-2-fluorophenyl)piperazine-1-carboxamide]",< 50
2,"CN1CCN(CC(=O)Nc2cc(COc3cccnc3N3CCN(C(=O)Nc4cc(Cl)cc(C(F)(F)F)c4)CC3)ccn2)CC1 [Example 233, N-[3-chloro-5-(trifluoromethyl)phenyl]-4-(3-{[(2-{[(4-methylpiperazin-1-yl)acetyl]amino}pyridin-4-yl)methyl]oxy}pyridin-2-yl)piperazine-1-carboxamide]",< 50
3,"Nc1cc(COc2nsnc2N2CCN(C(=O)Nc3cc(C(F)(F)F)cc(C(F)(F)F)c3)CC2)ccn1 [Example 99, 4-(4-{[(2-aminopyridin-4-yl)methyl]oxy}-1,2,5-thiadiazol-3-yl)-N-[3,5-bis(trifluoromethyl)phenyl]piperazine-1-carboxamide]",< 50
4,"Nc1nccc(COc2nccnc2N2CCN(C(=O)Nc3cc(C(F)(F)F)cc(C(F)(F)F)c3)CC2)n1 [Example 135, 4-(3-{[(2-aminopyrimidin-4-yl)methyl]oxy}pyrazin-2-yl)-N-[3,5-bis(trifluoromethyl)phenyl]piperazine-1-carboxamide]",< 50
5,"CCc1ccc(F)c(NC(=O)N2CCN(c3nc(Cl)ccc3OCc3ccnc(N)n3)CC2)c1 [Example 246, 4-(3-{[(2-aminopyrimidin-4-yl)methyl]oxy}-6-chloropyridin-2-yl)-N-(5-ethyl-2-fluorophenyl)piperazine-1-carboxamide]",< 50
6,"CCc1ccc(F)c(NC(=O)N2CCN(c3nccnc3OCc3ccnc(N)n3)CC2)c1 [Example 203, 4-(3-{[(2-aminopyrimidin-4-yl)methyl]oxy}pyrazin-2-yl)-N-(5-ethyl-2-fluorophenyl)piperazine-1-carboxamide]",< 50
7,"Nc1nccc(COc2cccnc2N2CCN(C(=O)Nc3cccc(C(F)(F)F)c3)CC2)n1 [Example 174, 4-(3-{[(2-aminopyrimidin-4-yl)methyl]oxy}pyridin-2-yl)-N-[3-(trifluoromethyl)phenyl]piperazine-1-carboxamide]",< 50
8,"Nc1nccc(COc2cccnc2N2CCN(C(=O)Nc3cc(C(F)(F)F)ccc3F)CC2)n1 [Example 169, 4-(3-{[(2-aminopyrimidin-4-yl)methyl]oxy}pyridin-2-yl)-N-[2-fluoro-5-(trifluoromethyl)phenyl]piperazine-1-carboxamide]",< 50
9,"O=C(Nc1cc(C(F)(F)F)cc(C(F)(F)F)c1)N1CCN(c2nsnc2OCc2ccnc(N3CCOC3=O)c2)CC1 [Example 159, N-[3,5-bis(trifluoromethyl)phenyl]-4-[4-({[2-(2-oxo-1,3-oxazolidin-3-yl)pyridin-4-yl]methyl}oxy)-1,2,5-thiadiazol-3-yl]piperazine-1-carboxamide]",≥ 10000
10,"COC(=O)Nc1cc(COc2cccnc2N2CCN(C(=O)Nc3cccc(Br)c3)CC2)ccn1 [Example 164, methyl [4-({[2-(4-{[(3-bromophenyl)amino]carbonyl}piperazin-1-yl)pyridin-3-yl]oxy}methyl)pyridin-2-yl]carbamate]",< 50
11,"Nc1nccc(COc2nsnc2N2CCN(C(=O)Nc3ccccc3)CC2)n1 [Example 230, 4-(4-{[(2-aminopyrimidin-4-yl)methyl]oxy}-1,2,5-thiadiazol-3-yl)-N-phenylpiperazine-1-carboxamide]",≥ 10000
12,"Nc1nccc(COc2nsnc2N2CCN(C(=O)Nc3cc(Cl)cc(Cl)c3)CC2)n1 [Example 223, 4-(4-{[(2-aminopyrimidin-4-yl)methyl]oxy}-1,2,5-thiadiazol-3-yl)-N-(3,5-dichlorophenyl)piperazine-1-carboxamide]",50 to 1000
13,"Nc1nccc(COc2nsnc2N2CCN(C(=O)Nc3ccc(F)c(Cl)c3)CC2)n1 [Example 253, 4-(4-{[(2-aminopyrimidin-4-yl)methyl]oxy}-1,2,5-thiadiazol-3-yl)-N-(3-chloro-4-fluorophenyl)piperazine-1-carboxamide]",1000 to 10000
14,"N#Cc1nc(OCc2ccncc2)c(N2CCN(C(=O)Nc3cc(C(F)(F)F)cc(C(F)(F)F)c3)CC2)nc1C#N [Example 90, N-[3,5-bis(trifluoromethyl)phenyl]-4-{5,6-dicyano-3-[(pyridin-4-ylmethyl)oxy]pyrazin-2-yl}piperazine-1-carboxamide]",50 to 1000
15,"CC(C)(C)OC(=O)Nc1cc(COc2nsnc2N2CCN(C(=O)Nc3cc(C(F)(F)F)cc(C(F)(F)F)c3)CC2)ccn1 [Example 100, 1,1-dimethylethyl {4-[({4-[4-({[3,5-bis(trifluoromethyl)phenyl]amino}carbonyl)piperazin-1-yl]-1,2,5-thiadiazol-3-yl}oxy)methyl]pyridin-2-yl}carbamate]",< 50
16,"CCc1cc(Cl)cc(NC(=O)N2CCN(c3nccnc3OCc3ccnc(N)n3)CC2)c1 [Example 202, 4-(3-{[(2-aminopyrimidin-4-yl)methyl]oxy}pyrazin-2-yl)-N-(3-chloro-5-ethylphenyl)piperazine-1-carboxamide]",< 50
17,"Nc1nccc(COc2cccnc2N2CCN(C(=O)NC3CCCCC3)CC2)n1 [Example 206, 4-(3-{[(2-aminopyrimidin-4-yl)methyl]oxy}pyridin-2-yl)-N-cyclohexylpiperazine-1-carboxamide]",1000 to 10000
18,"Nc1nccc(COc2nsnc2N2CCN(C(=O)Nc3cc(C(F)(F)F)cc(Cl)c3F)CC2)n1 [Example 248, 4-(4-{[(2-aminopyrimidin-4-yl)methyl]oxy}-1,2,5-thiadiazol-3-yl)-N-[3-chloro-2-fluoro-5-(trifluoromethyl)phenyl]piperazine-1-carboxamide]",< 50
19,"O=C(Nc1cc(C(F)(F)F)cc(C(F)(F)F)c1)N1CCN(c2ccccc2OCc2ccncc2)CC1 [Example 72, N-[3,5-bis(trifluoromethyl)phenyl]-4-{2-[(pyridin-4-ylmethyl)oxy]phenyl}piperazine-1-carboxamide]",< 50
20,"CCc1cc(Cl)cc(NC(=O)N2CCN(c3ncccc3OCc3ccnc(N)n3)CC2)c1 [Example 179, 4-(3-{[(2-aminopyrimidin-4-yl)methyl]oxy}pyridin-2-yl)-N-(3-chloro-5-ethylphenyl)piperazine-1-carboxamide]",< 50

# Continued, values first:
row,IC50 [nM],Structure (SMILES)
1,< 50,"Nc1nccc(COc2nsnc2N2CCN(C(=O)Nc3cccc(OC(F)(F)F)c3)CC2)n1 [Example 258, 4-(4-{[(2-aminopyrimidin-4-yl)methyl]oxy}-1,2,5-thiadiazol-3-yl)-N-{3-[(trifluoromethyl)oxy]phenyl}piperazine-1-carboxamide]"
2,50 to 1000,"CCc1cc(NC(=O)N2CCN(c3nsnc3OCc3ccnc(N)n3)CC2)ccc1F [Example 252, 4-(4-{[(2-aminopyrimidin-4-yl)methyl]oxy}-1,2,5-thiadiazol-3-yl)-N-(3-ethyl-4-fluorophenyl)piperazine-1-carboxamide]"
3,50 to 1000,"O=C(Nc1nccc(COc2nsnc2N2CCN(C(=O)Nc3cc(C(F)(F)F)cc(C(F)(F)F)c3)CC2)n1)OCCN1CCCCC1 [Example 163, 2-piperidin-1-ylethyl {4-[({4-[4-({[3,5-bis(trifluoromethyl)phenyl]amino}carbonyl)piperazin-1-yl]-1,2,5-thiadiazol-3-yl}oxy)methyl]pyrimidin-2-yl}carbamate]"
4,50 to 1000,"CC(C)Nc1nccc(COc2nsnc2N2CCN(C(=O)Nc3cc(C(F)(F)F)cc(C(F)(F)F)c3)CC2)n1 [Example 116, N-[3,5-bis(trifluoromethyl)phenyl]-4-{4-[({2-[(1-methylethyl)amino]pyrimidin-4-yl}methyl)oxy]-1,2,5-thiadiazol-3-yl}piperazine-1-carboxamide]"
5,< 50,"Nc1nccc(COc2cccnc2N2CCN(C(=O)Nc3cccc(Br)c3)CC2)n1 [Example 184, 4-(3-{[(2-aminopyrimidin-4-yl)methyl]oxy}pyridin-2-yl)-N-(3-bromophenyl)piperazine-1-carboxamide]"
6,< 50,"O=C(Nc1cc(C(F)(F)F)cc(C(F)(F)F)c1)N1CCN(c2nsnc2OCc2ccnc(Nc3ccccc3)n2)CC1 [Example 118, N-[3,5-bis(trifluoromethyl)phenyl]-4-[4-({[2-(phenylamino)pyrimidin-4-yl]methyl}oxy)-1,2,5-thiadiazol-3-yl]piperazine-1-carboxamide]"
7,1000 to 10000,"CC(=O)c1cccc(NC(=O)N2CCN(c3nsnc3OCc3ccnc(N)n3)CC2)c1 [Example 267, N-(3-acetylphenyl)-4-(4-{[(2-aminopyrimidin-4-yl)methyl]oxy}-1,2,5-thiadiazol-3-yl)piperazine-1-carboxamide]"
8,1000 to 10000,"O=C(Nc1cc(C(F)(F)F)cc(C(F)(F)F)c1)N1CCN(c2nsnc2OCCCc2cccnc2)CC1 [Example 29, N-[3,5-bis(trifluoromethyl)phenyl]-4-{4-[(3-pyridin-3-ylpropyl)oxy]-1,2,5-thiadiazol-3-yl}piperazine-1-carboxamide]"
9,50 to 1000,"O=C(Nc1cc(C(F)(F)F)cc(C(F)(F)F)c1)C1CCN(c2nsnc2OCc2ccncc2)CC1 [Example 36, N-[3,5-bis(trifluoromethyl)phenyl]-1-{4-[(pyridin-4-ylmethyl)oxy]-1,2,5-thiadiazol-3-yl}piperidine-4-carboxamide]"
10,1000 to 10000,"O=C(Nc1cc(COc2nsnc2N2CCN(C(=O)Nc3cc(C(F)(F)F)cc(C(F)(F)F)c3)CC2)ccn1)c1ccccc1 [Example 125, N-[3,5-bis(trifluoromethyl)phenyl]-4-{4-[({2-[(phenylcarbonyl)amino]pyridin-4-yl}methyl)oxy]-1,2,5-thiadiazol-3-yl}piperazine-1-carboxamide]"
11,50 to 1000,"CC1CN(c2nsnc2OCc2ccncc2)CCN1C(=O)Cc1cc(C(F)(F)F)ccc1C(F)(F)F (centres unmarked) [Example 61, 1-{[2,5-bis(trifluoromethyl)phenyl]acetyl}-2-methyl-4-{4-[(pyridin-4-ylmethyl)oxy]-1,2,5-thiadiazol-3-yl}piperazine]"
12,50 to 1000,"CCCNc1cc(COc2nsnc2N2CCN(C(=O)Nc3cc(C(F)(F)F)cc(C(F)(F)F)c3)CC2)ccn1 [Example 107, N-[3,5-bis(trifluoromethyl)phenyl]-4-[4-({[2-(propylamino)pyridin-4-yl]methyl}oxy)-1,2,5-thiadiazol-3-yl]piperazine-1-carboxamide]"
